Values after ≈ are worked out from the molar mass of the structure shown.
Tests used:
[1] = Hemolytic activity in rabbit erythrocytes measured after 1 hr by microplate reader analysis; type: ADME, cell-based, Oryctolagus cuniculus, Erythrocyte
Staphylococcus aureus [2] = experiment: Antibacterial activity against Staphylococcus aureus ATCC 29213 measured after 24 hrs by microplate reader analysis; type: functional
Staphylococcus aureus [3] = experiment: Antibacterial activity against methicillin-resistant Staphylococcus aureus NCTC 10442 measured after 24 hrs by microplate reader analysis; type: functional
Staphylococcus aureus [4] = experiment: Antibacterial activity against methicillin-resistant Staphylococcus aureus N315 measured after 24 hrs by microplate reader analysis; type: functional

Compound | HC50 at 1 h [1] | MIC (Staphylococcus aureus [2]) | MIC (Staphylococcus aureus [3]) | MIC (Staphylococcus aureus [4])
CC(C)=CCn1c2ccccc2c2c(OCC(O)CN(C)C)cccc21 (stereo not given) | 119 µg/mL | 6.25 µg/mL (≈ 17.7 µM) | 3.12 µg/mL (≈ 8.87 µM) | 3.12 µg/mL (≈ 8.87 µM)
CCCCCn1c2ccccc2c2c(OCC3CO3)cccc21 (stereo not given) | > 200 µg/mL | > 50 µg/mL | > 50 µg/mL | > 50 µg/mL
Cn1c2ccccc2c2c(OCC3CO3)cccc21 (stereo not given) | > 200 µg/mL | > 50 µg/mL | > 50 µg/mL | > 50 µg/mL
CCNCC(O)COc1cccc2c1c1ccccc1n2CC=C(C)C (stereo not given) | 156 µg/mL | 6.25 µg/mL (≈ 17.7 µM) | 6.25 µg/mL (≈ 17.7 µM) | 3.12 µg/mL (≈ 8.87 µM)
CCCCCn1c2ccccc2c2c(OCC(O)CN(C)C)cccc21 (stereo not given) | 152 µg/mL | 12.5 µg/mL (≈ 35.3 µM) | 6.25 µg/mL (≈ 17.6 µM) | 6.25 µg/mL (≈ 17.6 µM)
NCC(O)COc1cccc2[nH]c3ccccc3c12 (stereo not given) | > 200 µg/mL | > 50 µg/mL | > 50 µg/mL | > 50 µg/mL
CCN(CC)CC(O)COc1cccc2c1c1ccccc1n2CC=C(C)C (stereo not given) | 88.7 µg/mL | 12.5 µg/mL (≈ 32.8 µM) | 12.5 µg/mL (≈ 32.8 µM) | 12.5 µg/mL (≈ 32.8 µM)
CC(C)=CCn1c2ccccc2c2c(OCC(O)CN3CCCCC3)cccc21 (stereo not given) | 81.8 µg/mL | 6.25 µg/mL (≈ 15.9 µM) | 3.12 µg/mL (≈ 7.96 µM) | 3.12 µg/mL (≈ 7.96 µM)
CC(C)=CCn1c2ccccc2c2c(OCC(O)CNC(C)C)cccc21 (stereo not given) | 160 µg/mL | 6.25 µg/mL (≈ 17.1 µM) | 3.12 µg/mL (≈ 8.53 µM) | 3.12 µg/mL (≈ 8.53 µM)
CC(C)=CCn1c2ccccc2c2c(OCC(O)CN(CCO)CCO)cccc21 (stereo not given) | 126 µg/mL | 25 µg/mL (≈ 60.6 µM) | 25 µg/mL (≈ 60.6 µM) | 25 µg/mL (≈ 60.6 µM)
CC(C)=CCn1c2ccccc2c2c(OCC(O)CN)cccc21 (stereo not given) | > 200 µg/mL | 12.5 µg/mL (≈ 38.5 µM) | 6.25 µg/mL (≈ 19.3 µM) | 6.25 µg/mL (≈ 19.3 µM)
CCCCCCCn1c2ccccc2c2c(OCC3CO3)cccc21 (stereo not given) | > 200 µg/mL | > 50 µg/mL | > 50 µg/mL | > 50 µg/mL
CCCn1c2ccccc2c2c(OCC(O)CN(C)C)cccc21 (stereo not given) | > 200 µg/mL | 50 µg/mL (≈ 153 µM) | 50 µg/mL (≈ 153 µM) | 50 µg/mL (≈ 153 µM)
CC(C)=CCn1c2ccccc2c2c(OCC3CO3)cccc21 (stereo not given) | > 200 µg/mL | > 50 µg/mL | > 50 µg/mL | > 50 µg/mL
CC(C)=CCn1c2ccccc2c2c(OCC(O)CN3CCSCC3)cccc21 (stereo not given) | > 200 µg/mL | > 50 µg/mL | > 50 µg/mL | > 50 µg/mL
CC(C)NCC(O)COc1cccc2[nH]c3ccccc3c12 (stereo not given) [CARAZOLOL] | > 200 µg/mL | > 50 µg/mL | > 50 µg/mL | > 50 µg/mL
CCCCN(CCCC)CC(O)COc1cccc2c1c1ccccc1n2CC=C(C)C (stereo not given) | > 200 µg/mL | > 50 µg/mL | > 50 µg/mL | > 50 µg/mL
N=C(N)NCC(O)COc1cccc2[nH]c3ccccc3c12 (stereo not given) | > 200 µg/mL | 50 µg/mL (≈ 168 µM) | 50 µg/mL (≈ 168 µM) | 50 µg/mL (≈ 168 µM)
CC(C)=CCn1c2ccccc2c2c(OCC(O)CN3CCN(C)CC3)cccc21 (stereo not given) | 70 µg/mL | 12.5 µg/mL (≈ 30.7 µM) | 12.5 µg/mL (≈ 30.7 µM) | 12.5 µg/mL (≈ 30.7 µM)
c1ccc2c(c1)[nH]c1cccc(OCC3CO3)c12 (stereo not given) | > 200 µg/mL | > 50 µg/mL | > 50 µg/mL | > 50 µg/mL
CCCCCCCCCn1c2ccccc2c2c(OCC3CO3)cccc21 (stereo not given) | > 200 µg/mL | > 50 µg/mL | > 50 µg/mL | > 50 µg/mL
CCCCCCCCCn1c2ccccc2c2c(OCC(O)CN(C)C)cccc21 (stereo not given) | 128 µg/mL | 12.5 µg/mL (≈ 30.4 µM) | 6.25 µg/mL (≈ 15.2 µM) | 6.25 µg/mL (≈ 15.2 µM)
CN(C)CC(O)COc1cccc2[nH]c3ccccc3c12 (stereo not given) | > 200 µg/mL | > 50 µg/mL | > 50 µg/mL | > 50 µg/mL
CCCNCC(O)COc1cccc2c1c1ccccc1n2CC=C(C)C (stereo not given) | > 200 µg/mL | 6.25 µg/mL (≈ 17.1 µM) | 6.25 µg/mL (≈ 17.1 µM) | 3.12 µg/mL (≈ 8.53 µM)
CCCCCNCC(O)COc1cccc2c1c1ccccc1n2CC=C(C)C (stereo not given) | > 200 µg/mL | 12.5 µg/mL (≈ 31.7 µM) | 12.5 µg/mL (≈ 31.7 µM) | 6.25 µg/mL (≈ 15.8 µM)

From ChEMBL document CHEMBL4725344, “Development of Highly Potent Carbazole Amphiphiles as Membrane-Targeting Antimicrobials for Treating Gram-Positive Bacterial Infections” (J Med Chem, 2020)
